Source: publication PMC2241863 (Nucleic Acids Research, 2007)
pIC50: −log10 of the molar value.

What was measured:
E. coli RPR = conditions: cited from earlier work
[1] = tested on: E. coli RNase P holoenzyme; experiment: E. coli RNase P holoenzyme ptRNATyr processing assay, 'high-salt' buffer; assay type: biochemical, Escherichia coli; conditions: 1 mM added to assay
bacterial RNase P = conditions: 'low-salt' buffer, cited from earlier work; for pIC50: read-out: IC50 for inhibition of bacterial RNase P
[2] = tested on: E. coli RNase P holoenzyme; conditions: cited from earlier work
human RNase P = conditions: cited from earlier work

Row | SMILES | Effect on E. coli RNase P holoenzyme activity [1] | pIC50 (bacterial RNase P) | other results
1 | NC[C@@H]1O[C@H](O[C@H]2[C@@H](O)[C@H](O[C@@H]3[C@@H](O)[C@H](N)C[C@H](N)[C@H]3O[C@H]3O[C@H](CO)[C@@H](O)[C@H](O)[C@H]3N)O[C@@H]2CO)[C@H](N)[C@@H](O)[C@@H]1O [Par, paromomycin] |  |  | Fold weaker than NeoB in inhibiting bacterial RPR (E. coli RPR): 6 fold
2 | N=C(N)NCCC[C@H](N)C(=O)O [arginine] | no effect |  | 
3 | NC[C@@H]1O[C@H](O[C@H]2[C@@H](O)[C@H](O[C@@H]3[C@@H](O)[C@H](N)C[C@H](N)[C@H]3O[C@H]3O[C@H](CN)[C@@H](O)[C@H](O)[C@H]3N)O[C@@H]2CO)[C@H](N)[C@@H](O)[C@@H]1O [NeoB, neomycin B] |  | 4.22 | Increase in IC50 in 'high-salt' instead of 'low-salt' buffer [2]: 7 fold; Increase in IC50 with mutations in E. coli RPR L15 loop (E. coli RPR; L15 mutations that weaken Mg2+ binding): 3 fold
4 | N=C(N)N [guanidine] | no effect |  | 
5 | NCCCC[C@H](N)C(=O)O [lysine] | no effect |  | 
6 | N=C(N)NCCC[C@H](N)C(=O)NC[C@@H]1O[C@H](O[C@H]2[C@@H](O)[C@H](O[C@@H]3[C@@H](O)[C@H](NC(=O)[C@@H](N)CCCNC(=N)N)C[C@H](NC(=O)[C@@H](N)CCCNC(=N)N)[C@H]3O[C@H]3O[C@H](CNC(=O)[C@@H](N)CCCNC(=N)N)[C@@H](O)[C@H](O)[C@H]3NC(=O)[C@@H](N)CCCNC(=N)N)O[C@@H]2CO)[C@H](NC(=O)[C@@H](N)CCCNC(=N)N)[C@@H](O)[C@@H]1O [NeoR6] |  | 6.90 | Effectiveness against human RNase P compared with bacterial RNase P (human RNase P): not as effective; Potency of NeoR6 relative to NeoB in inhibiting bacterial RNase P (bacterial RNase P): 500 fold
